Reference: PubChem BioAssay AID252 (DTP/NCI, 2004)
Several values for one entry are separate records, joined by “and”; a condition that tells them apart may be missing. Equal values may be shown once. Toxic doses and inconclusive results are not listed.

System: BDF1 mice, intracerebral L1210 leukemia, survival T/C
Assay: NCI In Vivo Anticancer Drug Screen. Data for tumor model L1210 Leukemia (intracerebral) in B6D2F1 (BDF1) mice
Settings: higher = longer survival
Outline: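 Mice carrying transplanted tumour were dosed with compound; survival was recorded and expressed as treated-group value (T) divided by vehicle-control value (C).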

Compound: CCOC(=O)C1(NC(=O)N(CCCl)N=O)CCCCC1
- T/C (endpoint: mean survival time, dose: 62.0 mg/kg/injection, schedule: Q01DX001 (ip), vehicle: other): 110 % of control
- T/C (endpoint: mean survival time, dose: 250.0 mg/kg/injection, schedule: Q01DX001 (ip), vehicle: other): 192 % of control and 200 % of control
- T/C (endpoint: mean survival time, dose: 500.0 mg/kg/injection, schedule: Q01DX001 (ip), vehicle: other): 190 % of control and 196 % of control
- T/C (endpoint: mean survival time, dose: 750.0 mg/kg/injection, schedule: Q01DX001 (ip), vehicle: other): 215 % of control
- T/C (endpoint: mean survival time, dose: 1000.0 mg/kg/injection, schedule: Q01DX001 (ip), vehicle: other): 156 % of control

Compound: CC1CCC(NC(=O)N(CCCl)N=O)CC1 (centres undefined)
- T/C (endpoint: mean survival time, dose: 2.0 mg/kg/injection, schedule: Q01DX001 (ip), vehicle: clinical formulation): 100 % of control
- T/C (endpoint: mean survival time, dose: 2.0 mg/kg/injection, schedule: Q01DX009 (ip), vehicle: other): 117 % of control
- T/C (endpoint: mean survival time, dose: 3.13 mg/kg/injection, schedule: Q01DX009 (ip), vehicle: Klucel (hydroxypropylcellulose) (HPC)): 112 % of control
- T/C (endpoint: mean survival time, dose: 4.0 mg/kg/injection, schedule: Q01DX001 (ip), vehicle: clinical formulation): 105 % of control
- T/C (endpoint: mean survival time, dose: 4.0 mg/kg/injection, schedule: Q01DX001 (ip), vehicle: saline): 103 % of control
- T/C (endpoint: mean survival time, dose: 4.3 mg/kg/injection, schedule: Q01DX001 (ip), vehicle: other): 104 % of control and 107 % of control
- T/C (endpoint: mean survival time, dose: 5.0 mg/kg/injection, schedule: Q01DX001 (ip), vehicle: other): 115 % of control
- T/C (endpoint: mean survival time, dose: 5.0 mg/kg/injection, schedule: Q01DX009 (ip), vehicle: saline): 161 % of control
- T/C (endpoint: mean survival time, dose: 5.4 mg/kg/injection, schedule: Q01DX001 (oral), vehicle: other): 110 % of control
- T/C (endpoint: mean survival time, dose: 8.0 mg/kg/injection, schedule: Q01DX001 (ip), vehicle: Klucel (hydroxypropylcellulose) (HPC)): 112 % of control
- T/C (endpoint: mean survival time, dose: 8.0 mg/kg/injection, schedule: Q01DX001 (ip), vehicle: clinical formulation): 115 % of control
- T/C (endpoint: mean survival time, dose: 8.0 mg/kg/injection, schedule: Q01DX001 (ip), vehicle: saline): 118 % of control
- T/C (endpoint: mean survival time, dose: 8.0 mg/kg/injection, schedule: Q01DX009 (ip), vehicle: other): 183 % of control
- T/C (endpoint: mean survival time, dose: 9.0 mg/kg/injection, schedule: Q01DX001 (ip), vehicle: other): 110 % of control and 112 % of control
- T/C (endpoint: mean survival time, dose: 10.0 mg/kg/injection, schedule: Q01DX009 (ip), vehicle: saline): 151 % of control
- T/C (endpoint: mean survival time, dose: 12.5 mg/kg/injection, schedule: Q01DX009 (ip), vehicle: Klucel (hydroxypropylcellulose) (HPC)): 161 % of control
- T/C (endpoint: mean survival time, dose: 16.0 mg/kg/injection, schedule: Q01DX001 (ip), vehicle: saline): 153 % of control
- T/C (endpoint: mean survival time, dose: 16.0 mg/kg/injection, schedule: Q01DX009 (ip), vehicle: other): 113 % of control
- T/C (endpoint: mean survival time, dose: 20.0 mg/kg/injection, schedule: Q01DX001 (ip), vehicle: other): 188 % of control
- T/C (endpoint: mean survival time, dose: 20.0 mg/kg/injection, schedule: Q01DX009 (ip), vehicle: saline): 98 % of control
- T/C (endpoint: mean survival time, dose: 24.0 mg/kg/injection, schedule: Q01DX001 (ip), vehicle: other): 175 % of control and 185 % of control
- T/C (endpoint: mean survival time, dose: 25.0 mg/kg/injection, schedule: Q01DX009 (ip), vehicle: Klucel (hydroxypropylcellulose) (HPC)): 109 % of control
- T/C (endpoint: mean survival time, dose: 30.0 mg/kg/injection, schedule: Q01DX001 (ip), vehicle: other): 187 % of control and 198 % of control
- T/C (endpoint: mean survival time, dose: 32.0 mg/kg/injection, schedule: Q01DX001 (ip), vehicle: clinical formulation): 160 % of control
- T/C (endpoint: mean survival time, dose: 32.0 mg/kg/injection, schedule: Q01DX001 (oral), vehicle: clinical formulation): 102 % of control
- T/C (endpoint: mean survival time, dose: 36.0 mg/kg/injection, schedule: Q01DX001 (oral), vehicle: other): 238 % of control and 243 % of control and 292 % of control
- T/C (endpoint: mean survival time, dose: 40.0 mg/kg/injection, schedule: Q01DX001 (ip), vehicle: other): 280 % of control
- T/C (endpoint: mean survival time, dose: 45.0 mg/kg/injection, schedule: Q01DX001 (ip), vehicle: other): 225 % of control and 251 % of control
- T/C (endpoint: mean survival time, dose: 45.0 mg/kg/injection, schedule: Q01DX001 (oral), vehicle: other): 306 % of control and 362 % of control
- T/C (endpoint: mean survival time, dose: 54.0 mg/kg/injection, schedule: Q01DX001 (oral), vehicle: other): 189 % of control and 248 % of control and 357 % of control
- T/C (endpoint: mean survival time, dose: 67.0 mg/kg/injection, schedule: Q01DX001 (ip), vehicle: other): 168 % of control
- T/C (endpoint: mean survival time, dose: 72.0 mg/kg/injection, schedule: Q01DX001 (ip), vehicle: other): 209 % of control and 306 % of control
- T/C (endpoint: mean survival time, dose: 90.0 mg/kg/injection, schedule: Q01DX001 (oral), vehicle: other): 91 % of control
- T/C (endpoint: mean survival time, dose: 91.0 mg/kg/injection, schedule: Q01DX001 (oral), vehicle: other): 114 % of control
- T/C (endpoint: mean survival time, dose: 128.0 mg/kg/injection, schedule: Q01DX001 (ip), vehicle: Klucel (hydroxypropylcellulose) (HPC)): 109 % of control
- T/C (endpoint: mean survival time, dose: 128.0 mg/kg/injection, schedule: Q01DX001 (ip), vehicle: clinical formulation): 103 % of control
- T/C (endpoint: mean survival time, dose: 128.0 mg/kg/injection, schedule: Q01DX001 (ip), vehicle: saline): 103 % of control
- T/C (endpoint: mean survival time, dose: 256.0 mg/kg/injection, schedule: Q01DX001 (ip), vehicle: Klucel (hydroxypropylcellulose) (HPC)): 111 % of control
- T/C (endpoint: mean survival time, dose: 256.0 mg/kg/injection, schedule: Q01DX001 (oral), vehicle: clinical formulation): 112 % of control
- T/C (endpoint: median survival time, dose: 2.0 mg/kg/injection, schedule: Q01DX001 (ip), vehicle: clinical formulation): 106 % of control
- T/C (endpoint: median survival time, dose: 2.0 mg/kg/injection, schedule: Q01DX001 (ip), vehicle: saline): 106 % of control
- T/C (endpoint: median survival time, dose: 4.0 mg/kg/injection, schedule: Q01DX001 (ip), vehicle: clinical formulation): 113 % of control
- T/C (endpoint: median survival time, dose: 4.0 mg/kg/injection, schedule: Q01DX001 (ip), vehicle: saline): 115 % of control
- T/C (endpoint: median survival time, dose: 8.0 mg/kg/injection, schedule: Q01DX001 (ip), vehicle: clinical formulation): 122 % of control
- T/C (endpoint: median survival time, dose: 16.0 mg/kg/injection, schedule: Q01DX001 (ip), vehicle: saline): 178 % of control
- T/C (endpoint: median survival time, dose: 32.0 mg/kg/injection, schedule: Q01DX001 (ip), vehicle: clinical formulation): 175 % of control
- T/C (endpoint: median survival time, dose: 32.0 mg/kg/injection, schedule: Q01DX001 (ip), vehicle: saline): 159 % of control
- T/C (endpoint: median survival time, dose: 32.0 mg/kg/injection, schedule: Q01DX001 (oral), vehicle: clinical formulation): 108 % of control
- T/C (endpoint: median survival time, dose: 64.0 mg/kg/injection, schedule: Q01DX001 (oral), vehicle: clinical formulation): 150 % of control
- T/C (endpoint: median survival time, dose: 128.0 mg/kg/injection, schedule: Q01DX001 (ip), vehicle: clinical formulation): 110 % of control
- T/C (endpoint: median survival time, dose: 128.0 mg/kg/injection, schedule: Q01DX001 (ip), vehicle: saline): 117 % of control
- T/C (endpoint: median survival time, dose: 256.0 mg/kg/injection, schedule: Q01DX001 (ip), vehicle: clinical formulation): 103 % of control
- T/C (endpoint: median survival time, dose: 256.0 mg/kg/injection, schedule: Q01DX001 (ip), vehicle: saline): 102 % of control
- T/C (endpoint: median survival time, dose: 256.0 mg/kg/injection, schedule: Q01DX001 (oral), vehicle: clinical formulation): 118 % of control
- T/C (endpoint: median survival time, dose: 512.0 mg/kg/injection, schedule: Q01DX001 (oral), vehicle: clinical formulation): 98 % of control
- T/C (endpoint: median survival time, dose: 1024.0 mg/kg/injection, schedule: Q01DX001 (oral), vehicle: clinical formulation): 83 % of control

Compound: C[n+]1ccc(Nc2ccc(NC(=O)c3ccc(Nc4cc[n+](C)c5ccc(N)cc45)cc3)cc2)cc1
- T/C (endpoint: mean survival time, dose: 0.5 mg/kg/injection, schedule: Q01DX009 (ip), vehicle: Klucel (hydroxypropylcellulose) (HPC)): 93 % of control
- T/C (endpoint: mean survival time, dose: 1.0 mg/kg/injection, schedule: Q01DX009 (ip), vehicle: Klucel (hydroxypropylcellulose) (HPC)): 106 % of control
- T/C (endpoint: mean survival time, dose: 2.0 mg/kg/injection, schedule: Q01DX009 (ip), vehicle: Klucel (hydroxypropylcellulose) (HPC)): 103 % of control
- T/C (endpoint: mean survival time, dose: 4.0 mg/kg/injection, schedule: Q01DX009 (ip), vehicle: Klucel (hydroxypropylcellulose) (HPC)): 110 % of control
- T/C (endpoint: mean survival time, dose: 8.0 mg/kg/injection, schedule: Q01DX009 (ip), vehicle: Klucel (hydroxypropylcellulose) (HPC)): 122 % of control

Compound: CC1(NC(=O)N(CCCl)N=O)CCCC1
- T/C (endpoint: mean survival time, dose: 12.5 mg/kg/injection, schedule: Q01DX001 (ip), vehicle: carboxymethylcellulose (CMC)): 91 % of control
- T/C (endpoint: mean survival time, dose: 25.0 mg/kg/injection, schedule: Q01DX001 (ip), vehicle: carboxymethylcellulose (CMC)): 102 % of control
- T/C (endpoint: mean survival time, dose: 50.0 mg/kg/injection, schedule: Q01DX001 (ip), vehicle: carboxymethylcellulose (CMC)): 100 % of control
- T/C (endpoint: mean survival time, dose: 100.0 mg/kg/injection, schedule: Q01DX001 (ip), vehicle: carboxymethylcellulose (CMC)): 100 % of control
- T/C (endpoint: mean survival time, dose: 125.0 mg/kg/injection, schedule: Q01DX001 (ip), vehicle: carboxymethylcellulose (CMC)): 347 % of control
- T/C (endpoint: mean survival time, dose: 187.0 mg/kg/injection, schedule: Q01DX001 (ip), vehicle: carboxymethylcellulose (CMC)): 285 % of control
- T/C (endpoint: mean survival time, dose: 250.0 mg/kg/injection, schedule: Q01DX001 (ip), vehicle: carboxymethylcellulose (CMC)): 276 % of control

Compound: CN(C)N=Nc1ccc(C(N)=O)cc1
- T/C (endpoint: median survival time, dose: 10.0 mg/kg/injection, schedule: Q01DX009 (ip), vehicle: saline with Tween-80): 98 % of control
- T/C (endpoint: median survival time, dose: 20.0 mg/kg/injection, schedule: Q01DX009 (ip), vehicle: saline with Tween-80): 107 % of control
- T/C (endpoint: median survival time, dose: 40.0 mg/kg/injection, schedule: Q01DX009 (ip), vehicle: saline with Tween-80): 109 % of control

Compound: OC(CBr)C(O)C(O)C(O)CBr (centres undefined)
- T/C (endpoint: mean survival time, dose: 25.0 mg/kg/injection, schedule: Q01DX009 (ip), vehicle: steriod suspending solution): 108 % of control
- T/C (endpoint: mean survival time, dose: 50.0 mg/kg/injection, schedule: Q01DX009 (ip), vehicle: steriod suspending solution): 121 % of control
- T/C (endpoint: mean survival time, dose: 100.0 mg/kg/injection, schedule: Q01DX009 (ip), vehicle: steriod suspending solution): 117 % of control
